The values below come from ChEMBL document CHEMBL1201862, “PubChem BioAssay data set” (2004).

Among the test systems are MOLT-4; SK-MEL-28; HCT-116; SR; SW-620; HOP-62; HL-60; Hs-578T; DU-145; NCI/ADR-RES; LOX IMVI; A549; ACHN; OVCAR-8; M14; U-251; K562; UACC-62; PC-3; OVCAR-3.
What all share (experiment): growth of human tumour cells (NCI), 48 h

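How tested: cells in 96-well plates exposed to compound for 48 hours at five concentrations. At the GI50, growth is halved.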 Activity calls are given as the source filed them. No stated cut-off is given here; in the data, active = GI50 up to about 1.1 µM and inactive = higher.

For `C=C1C(=O)O[C@@H]2C[C@@H](C)[C@@H]3C=CC(=O)[C@@]3(C)[C@@H](OC(=O)CCCC(=O)O[C@H]3[C@@H]4C(=C)C(=O)O[C@@H]4C[C@@H](C)[C@@H]4C=CC(=O)[C@]43C)[C@H]12`, the GI50 is < 0.01 µM (active) with MOLT-4; 0.0495 µM (active) in the test with SK-MEL-28; 0.0143 µM (active) with HCT-116; < 0.01 µM (active) with SR; 0.0144 µM (active) in the test with SW-620; 1.04 µM (active) with HOP-62. The GI50 is < 0.01 µM (active) in the test on HL-60; 0.104 µM (active) in the test with Hs-578T; 0.28 µM (active) in the test with DU-145; 0.396 µM (active) in the test on NCI/ADR-RES; 0.0518 µM (active) with LOX IMVI; 1.63 µM (inactive) in the test on A549. The GI50 in the test on ACHN is 0.0266 µM (active); in the test with OVCAR-8 it was 0.0131 µM (active); in the test with M14, 0.0217 µM (active); in the test on U-251, 0.101 µM (active); in the test with K562, < 0.01 µM (active); in the test on UACC-62 it was 0.0565 µM (active). For the same compound, the GI50 with PC-3 is 0.0931 µM (active); in the test on OVCAR-3 it was 0.0398 µM (active).

With `O=C(O)c1c(-c2ccccc2)c(=O)[nH]c2ccccc12`, the GI50 with MOLT-4, with SK-MEL-28, with HCT-116, in the test with SR, in the test on SW-620 and in the test on HOP-62 was > 100 µM (inactive) throughout. Besides, the GI50 with HL-60, with Hs-578T, in the test with DU-145, in the test on NCI/ADR-RES, in the test on LOX IMVI and with A549 was > 100 µM (inactive) each time. Moreover, the GI50 with ACHN, in the test with OVCAR-8, in the test with M14, in the test with U-251, with K562 and in the test with UACC-62 was > 100 µM (inactive) in each case. The GI50 in the test with PC-3 and in the test on OVCAR-3 was > 100 µM (inactive) throughout.

Regarding `C/C=C/C(C#N)(Cc1ccccc1)OP1(=O)OC(c2ccccc2)C(C)N1C` (stereo not given), the GI50 is 21.2 µM (inactive) in the test with MOLT-4; > 100 µM (inactive) in the test on SK-MEL-28; > 100 µM (inactive) with HCT-116; 36 µM (inactive) in the test on SR; > 100 µM (inactive) in the test on SW-620; > 100 µM (inactive) in the test on HOP-62. The GI50 in the test with HL-60 was 17 µM (inactive); with Hs-578T it was 89.5 µM (inactive); in the test with DU-145, > 100 µM (inactive); in the test with NCI/ADR-RES, 72.4 µM (inactive); in the test with LOX IMVI, 44.1 µM (inactive); in the test with A549, 66.4 µM (inactive). The GI50 in the test on ACHN was 84.1 µM (inactive); with OVCAR-8 it was 86.7 µM (inactive); in the test on M14 it was > 100 µM (inactive); with U-251, 88.5 µM (inactive); in the test on K562 it was 38.5 µM (inactive); with UACC-62, 56.5 µM (inactive). The figures for the GI50 with PC-3 and in the test on OVCAR-3 were 58.6 µM (inactive) and 56.8 µM (inactive), respectively.

In the case of `COC(=O)CCC(=O)NC1=C(Nc2ccc(OC)cc2)C(=O)c2ccccc2C1=O`, the GI50 was 15.7 µM (inactive) with MOLT-4; 17.2 µM (inactive) in the test on SK-MEL-28; 6.58 µM (inactive) in the test with HCT-116; 12.9 µM (inactive) with SR; 15.3 µM (inactive) in the test with SW-620; 18.7 µM (inactive) in the test on HOP-62. Moreover, the GI50 in the test on HL-60 is 10.8 µM (inactive); with Hs-578T, 20.8 µM (inactive); with DU-145, 14 µM (inactive); in the test on NCI/ADR-RES, 16.3 µM (inactive); in the test with LOX IMVI, 4.15 µM (inactive); in the test with A549, 14 µM (inactive). Further, the GI50 was 15.4 µM (inactive) in the test with ACHN; 14.1 µM (inactive) in the test with OVCAR-8; 7.26 µM (inactive) in the test on M14; 16.5 µM (inactive) with U-251; 23.9 µM (inactive) in the test on K562; 3.16 µM (inactive) in the test on UACC-62. The results for the GI50 in the test with PC-3 and in the test with OVCAR-3 were 9.66 µM (inactive) and 3.18 µM (inactive), respectively.

For the compound `O=[N+]([O-])c1ccc2c3c1[C@H]1O[C@H]1c1cccc(c1-3)[C@@H]1O[C@H]21`, the GI50 with MOLT-4 is 3.01 µM (inactive); in the test on SK-MEL-28, 2.28 µM (inactive); in the test with HCT-116, 1.81 µM (inactive); with SR, 2.72 µM (inactive); in the test with SW-620, 0.951 µM (active); in the test with HOP-62 it was 2.9 µM (inactive). For the same compound, the GI50 in the test with HL-60 is 3.15 µM (inactive); in the test on Hs-578T it was 3.15 µM (inactive); in the test with DU-145, 2.33 µM (inactive); in the test with NCI/ADR-RES, 2.41 µM (inactive); in the test on LOX IMVI, 0.305 µM (active); in the test on A549, 3.2 µM (inactive). For the same compound, the GI50 with ACHN is 2.22 µM (inactive); in the test on OVCAR-8, 0.91 µM (active); with M14, 1.71 µM (inactive); in the test with U-251, 1.8 µM (inactive); in the test with K562, 0.526 µM (active); with UACC-62, 1.86 µM (inactive). Besides, the GI50 is 2.3 µM (inactive) with PC-3 and 2.63 µM (inactive) in the test with OVCAR-3.

As for `CC(=O)Oc1cc(S(=O)(=O)Nc2nc(N)n[nH]2)c(S)cc1Cl`, the GI50 in the test on MOLT-4, with SK-MEL-28, in the test with HCT-116, in the test on SR, with SW-620 and in the test on HOP-62 was > 100 µM (inactive) each time. Further, the GI50 in the test on HL-60, in the test with Hs-578T, in the test with DU-145, with NCI/ADR-RES, with LOX IMVI and in the test with A549 was > 100 µM (inactive) in each case. The GI50 in the test on ACHN, in the test on OVCAR-8, with M14, in the test with U-251, in the test with K562 and in the test with UACC-62 was > 100 µM (inactive) in each case. In addition, the GI50 with PC-3 and with OVCAR-3 was > 100 µM (inactive) each time.

In the case of `COC1CCC(OS(C)(=O)=O)C(C)O1` (stereo not given), the GI50 with MOLT-4, in the test with SK-MEL-28, in the test with HCT-116, with SR, in the test with SW-620 and in the test on HOP-62 was > 10 µM (inactive) throughout. Further, the GI50 in the test with HL-60, with Hs-578T, in the test with DU-145, in the test with NCI/ADR-RES, in the test on LOX IMVI and in the test on A549 was > 10 µM (inactive) throughout. Besides, the GI50 with ACHN, in the test on OVCAR-8, with M14, with U-251, in the test with K562 and in the test on UACC-62 was > 10 µM (inactive) in each case. Also, the GI50 in the test with PC-3 and with OVCAR-3 was > 10 µM (inactive) in each case.

`CC(C)(C)OC(=O)NC1CC2(C=C(Br)C(=O)C(Br)=C2)OC1=O` (stereo not given): the GI50 was 0.401 µM (active) in the test with MOLT-4; 21.1 µM (inactive) with SK-MEL-28; 3.28 µM (inactive) with HCT-116; 0.955 µM (active) in the test with SR; 2.01 µM (inactive) with SW-620; 18.7 µM (inactive) with HOP-62. The GI50 with HL-60 was 2.47 µM (inactive); in the test on Hs-578T, 22 µM (inactive); with DU-145, 13 µM (inactive); with NCI/ADR-RES it was 14.8 µM (inactive); in the test on LOX IMVI it was 13 µM (inactive); with A549, 20.2 µM (inactive). For the same compound, the GI50 was 4.23 µM (inactive) in the test with ACHN; 7.14 µM (inactive) in the test on OVCAR-8; 7.14 µM (inactive) with M14; 17.4 µM (inactive) with U-251; 2.56 µM (inactive) in the test with K562; 17.6 µM (inactive) in the test with UACC-62. Also, the GI50 in the test on PC-3 is 13.9 µM (inactive); with OVCAR-3, 10.4 µM (inactive).

Take `O=C1C(c2ccccc2)=[N+]([O-])c2ccccc21`: the GI50 in the test with MOLT-4 was 21.6 µM (inactive); in the test on SK-MEL-28 it was 17.1 µM (inactive); in the test with HCT-116, 5.78 µM (inactive); in the test on SR it was 5.6 µM (inactive); in the test with SW-620, 5.83 µM (inactive); in the test with HOP-62 it was 18.7 µM (inactive). The GI50 in the test on HL-60 is 14.9 µM (inactive); in the test on Hs-578T it was 29.8 µM (inactive); with DU-145, 15.7 µM (inactive); with NCI/ADR-RES, 17.7 µM (inactive); in the test on LOX IMVI, 3.35 µM (inactive); in the test on A549, 19.9 µM (inactive). In addition, the GI50 in the test on ACHN is 19.2 µM (inactive); in the test on OVCAR-8, 18.6 µM (inactive); in the test on M14, 12.4 µM (inactive); in the test with U-251, 10.5 µM (inactive); in the test on K562, 3.15 µM (inactive); in the test on UACC-62 it was 15.5 µM (inactive). Further, the GI50 is 11.6 µM (inactive) in the test with PC-3 and 13.6 µM (inactive) in the test with OVCAR-3.

As for `COc1ccc(SC(C)(SC)c2ccccn2)c(OC)n1` (stereo not given), the GI50 in the test with MOLT-4 is 3.22 µM (inactive); in the test with SK-MEL-28, > 100 µM (inactive); in the test on HCT-116, 48.3 µM (inactive); in the test with SR it was 47.2 µM (inactive); with SW-620, > 100 µM (inactive); with HOP-62 it was > 100 µM (inactive). The GI50 in the test on HL-60 was 3.24 µM (inactive); in the test on Hs-578T it was 91.2 µM (inactive); with DU-145, > 100 µM (inactive); with NCI/ADR-RES it was 53.6 µM (inactive); in the test with LOX IMVI, 72.1 µM (inactive); in the test on A549, 79.4 µM (inactive). For the same compound, the GI50 with ACHN was > 100 µM (inactive); in the test on OVCAR-8, 75.7 µM (inactive); with M14, > 100 µM (inactive); in the test with U-251 it was > 100 µM (inactive); in the test on K562 it was 51.4 µM (inactive); in the test on UACC-62, 87.3 µM (inactive). Moreover, the GI50 was 76.2 µM (inactive) in the test with PC-3 and 52.8 µM (inactive) in the test with OVCAR-3.
